The values below come from PMC7988117, “OMN6 a novel bioengineered peptide for the treatment of multidrug resistant Gram negative bacteria” (Scientific Reports, 2021).

For one assay, the system named is A. baumannii BAA-1793. The settings on record: determined by ATCC according to CLSI guidelines, ref ATCC; cited from earlier work. An excerpt:
Supplement 41598_2021_86155_MOESM1_ESM.docx, table 3: Table S3. Supplementary information about the resistance pattern of the bacterial strain A. baumannii BAA-1793 used in the Minimum Inhibitory Concentration study presented in Table 1.

The subject of another assay is E. faecium BAA-2319. The settings on record: determined by ATCC according to CLSI guidelines, ref ATCC; cited from earlier work. An excerpt:
Supplement 41598_2021_86155_MOESM1_ESM.docx, table 2: Table S2. Supplementary information about the resistance pattern of the bacterial strain E. faecium BAA-2319 used in the Minimum Inhibitory Concentration study presented in Table 1.

The next assay deals with Staphylococcus aureus. In words: VITEK 2 antimicrobial sensitivity characterization. The class given is cell-based. The settings on record: VITEK 2 system, CLSI ranges. The procedure: This experiment was conducted by Omnix Medical, by JMI Laboratories (North Liberty, IA, USA) and by Aptuit (Verona) S.r.l. (Italy), an Evotec Company. All studies were performed according to Clinical and Laboratory Standards Institute guidelines[30] for the application of the broth microdilution method. Reference strains from American Type Culture Collection (ATCC) and clinical isolates from the Evotec EvostrAIn and the JMI Laboratories SENTRY surveillance program culture collections (Acinetobacter baumannii: ACC 00445, ACC 00527, ACC 00535, ATCC 17978, ATCC 19606, ATCC BAA-1793, ACC 01076, ACC 01077, NCTC 13420, JMI #1088100 and JMI #1001007; Klebsiella pneumoniae: ATCC 43816 and ATCC BAA-1705; Escherichia coli: ACC 01001 and ATCC 25922; Staphylococcus aureus: ATCC 29213, ATCC BAA-44 and ATCC 33591; Bacillus cereus: ATCC 14579; Enterococcus faecalis: ATCC 29212; Enterococcus faecium: ATCC BAA-2319) were used. The antimicrobial activity of OMN6 was determined by 12 serial two-fold dilutions in water of the 100-fold highest compound solution; 1 µL of each well was transferred into 96 microtiter plates (final concentration: 256–0.12 µg/mL). In most strains, same procedure was used to determine the colistin antimicrobial activity (final concentration: 32–0.015 µg/mL). Bacterial strains were sub-cultured on the agar plates and incubated for 18–24 h at 35 ± 2 °C in ambient air. Following incubation, the inoculum was prepared from isolated colonies and adjusted to 0.5 McFarland turbidity standard (1 to 2 × 10^8 colony-forming units/mL) in 0.9% saline. Bacterial suspension was then diluted 1:200 in Muller-Hinton broth (from BD; Becton, Dickinson and Company, Franklin Lakes, NJ, USA) and within 15 min 100 µL/well were dispensed. Growth-control wells and sterility-check wells (uninoculated well) were present in each plate. Plates were incubated for 18–24 h at 35 ± 2 °C in ambient air. […] The antimicrobial activity to other antibiotics on most bacterial strains was determined by Evotec using the antimicrobial sensitive test from the VITEK 2 automated microbiology system (bioMérieux SA, Marcy l'Etoile, France; data presented in Table S1), or by ATCC according to CLSI (Clinical and Laboratory Standards Institute) guidelines[30]
Table S1. Supplementary information about the resistance pattern of 14 bacterial strains used in the Minimum Inhibitory Concentration study presented in Table 1. The resistance pattern of the different bacterial isolates was characterized by broth microdilution studies (for colistin) or with the VITEK 2 system (for the other antibiotics).

On to `CCn1cc(C(=O)O)c(=O)c2cc(F)c(N3CCNCC3)cc21` [Norfloxacin], for which, in the assay on A. baumannii BAA-1793, the Resistance pattern entry is listed as “R”.

With `CO/N=C(\C(=O)N[C@@H]1C(=O)N2C(C(=O)O)=CCS[C@H]12)c1csc(N)n1` [Ceftizoxime], the Resistance pattern result in the assay on A. baumannii BAA-1793 is given as “R”.

On to `C[C@H]1[C@H](NC(=O)/C(=N\OC(C)(C)C(=O)O)c2csc(N)n2)C(=O)N1S(=O)(=O)O` [Aztreonam], for which the Resistance pattern result with A. baumannii BAA-1793 is recorded as “R”.

Regarding `CO/N=C(\C(=O)N[C@@H]1C(=O)N2C(C(=O)[O-])=C(C[N+]3(C)CCCC3)CS[C@H]12)c1csc(N)n1` [Cefepime], the Resistance pattern result with A. baumannii BAA-1793 is “R”.

With `CO[C@@]1(NC(=O)Cc2cccs2)C(=O)N2C(C(=O)O)=C(COC(N)=O)CS[C@@H]21` [Cefoxitin], in the assay on A. baumannii BAA-1793, the Resistance pattern result is recorded as “R”.

On to `COc1c(N2C[C@@H]3CCCN[C@@H]3C2)c(F)cc2c(=O)c(C(=O)O)cn(C3CC3)c12` [Moxifloxacin], for which the Resistance pattern entry in the assay on A. baumannii BAA-1793 is “R”.

As for `CO[C@@]1(NC(=O)C2SC(=C(C(N)=O)C(=O)O)S2)C(=O)N2C(C(=O)O)=C(CSc3nnnn3C)CS[C@@H]21` (some centres unmarked) [Cefotetan], the Resistance pattern result in the assay with A. baumannii BAA-1793 is “R”.

Regarding `CN(C)c1cc(NC(=O)CNC(C)(C)C)c(O)c2c1C[C@H]1C[C@H]3[C@H](N(C)C)C(O)=C(C(N)=O)C(=O)[C@@]3(O)C(O)=C1C2=O` [Tigecycline], the Resistance pattern entry in the assay on A. baumannii BAA-1793 and in the assay on E. faecium BAA-2319 was “S” throughout.

As for `CCN1CCN(C(=O)N[C@@H](C(=O)N[C@@H]2C(=O)N3[C@@H]2SC(C)(C)[C@@H]3C(=O)O)c2ccccc2)C(=O)C1=O` [Piperacillin], the Resistance pattern entry with A. baumannii BAA-1793 is on record as “R”.

For the compound `CC1(C)S[C@@H]2[C@H](NC(=O)[C@H](N)c3ccccc3)C(=O)N2[C@H]1C(=O)O` [Ampicillin], the Resistance pattern entry with A. baumannii BAA-1793 and in the assay with E. faecium BAA-2319 was “R” in each case.

Take `CO/N=C(\C(=O)N[C@@H]1C(=O)N2C(C(=O)OC(C)OC(C)=O)=C(COC(N)=O)CS[C@H]12)c1ccco1` (some centres unmarked) [Cefuroxime Axetil]: the Resistance pattern entry in the assay on A. baumannii BAA-1793 was “R”.

Consider `CC[C@H]1OC(=O)[C@H](C)[C@@H](O[C@H]2C[C@@](C)(OC)[C@@H](O)[C@H](C)O2)[C@H](C)[C@@H](O[C@@H]2O[C@H](C)C[C@H](N(C)C)[C@H]2O)[C@](C)(O)C[C@@H](C)C(=O)[C@H](C)[C@@H](O)[C@]1(C)O` [ERY, erythromycin], for which, in the assay with E. faecium BAA-2319, the Resistance pattern entry was “R”. In addition, the “VITEK characterization (resistance range)” value (“VITEK characterization” for short) with Staphylococcus aureus (S. aureus ATCC 29213) is “S”; in the assay on Staphylococcus aureus (S. aureus ATCC 33591), “R”.

`Cc1onc(-c2ccccc2)c1C(=O)N[C@@H]1C(=O)N2[C@@H]1SC(C)(C)[C@@H]2C(=O)O` [OXA, oxacillin]: the figures for the “VITEK characterization” value in the assay on Staphylococcus aureus (S. aureus ATCC 29213) and in the assay on Staphylococcus aureus (S. aureus ATCC 33591) were “S” and “R”, respectively.

Regarding `Cc1nnc(SCC2=C(C(=O)O)N3C(=O)[C@@H](NC(=O)Cn4cnnn4)[C@H]3SC2)s1` [Cefazolin], in the assay on A. baumannii BAA-1793, the Resistance pattern entry is reported as “R”.

As for `CO/N=C(\C(=O)N[C@@H]1C(=O)N2C(C(=O)O)=C(CSc3nc(=O)c(=O)[nH]n3C)CS[C@H]12)c1csc(N)n1` [Ceftriaxone], in the assay on A. baumannii BAA-1793, the Resistance pattern entry is recorded as “R”.

Take `CC1(C)S[C@@H]2[C@H](NC(=O)Cc3ccccc3)C(=O)N2[C@H]1C(=O)O` [Benzylpenicillin]: the Resistance pattern result in the assay on E. faecium BAA-2319 was “R”.

With `C[C@@H](O)[C@H]1C(=O)N2C(C(=O)O)=C(S[C@@H]3CN[C@H](C(=O)N(C)C)C3)[C@H](C)[C@H]12` [Meropenem], the Resistance pattern result with A. baumannii BAA-1793 is given as “R”.

On to `CN(C)[C@@H]1C(O)=C(C(N)=O)C(=O)[C@@]2(O)C(O)=C3C(=O)c4c(O)cccc4[C@@](C)(O)[C@H]3C[C@@H]12` [TET, tetracycline], for which the Resistance pattern result in the assay on A. baumannii BAA-1793 and in the assay on E. faecium BAA-2319 was “R” each time. Besides, the entries for the “VITEK characterization” value in the assay on Staphylococcus aureus (S. aureus ATCC 29213) and in the assay with Staphylococcus aureus (S. aureus ATCC 33591) were “S” and “R”, respectively.

As for `NC[C@H]1O[C@H](O[C@H]2[C@H](O)[C@@H](O[C@H]3O[C@H](CO)[C@@H](O)[C@H](N)[C@H]3O)[C@H](N)C[C@@H]2N)[C@H](N)C[C@@H]1O` [Tobramycin], in the assay with A. baumannii BAA-1793, the Resistance pattern result is “R”.

Consider `CCC[C@@H]1C[C@@H](C(=O)N[C@@H]([C@H]2O[C@H](SC)[C@H](O)[C@@H](O)[C@H]2O)[C@H](C)Cl)N(C)C1` [CLI, clindamycin], for which the “VITEK characterization” value in the assay with Staphylococcus aureus (S. aureus ATCC 29213) is “S”; in the assay with Staphylococcus aureus (S. aureus ATCC 33591), “R”.

For `C[C@H]1COc2c(N3CCN(C)CC3)c(F)cc3c(=O)c(C(=O)O)cn1c23` [Levofloxacin], the Resistance pattern entry in the assay with E. faecium BAA-2319 is “R”.

For the compound `COCC1=C(C(=O)O)N2C(=O)[C@@H](NC(=O)/C(=N\OC)c3csc(N)n3)[C@H]2SC1` [Cefpodoxime], the Resistance pattern entry with A. baumannii BAA-1793 was “R”.

As for `CC1(C)S[C@@H]2[C@H](NC(=O)[C@H](C(=O)O)c3ccsc3)C(=O)N2[C@H]1C(=O)O` [Ticarcillin], in the assay on A. baumannii BAA-1793, the Resistance pattern result is “R”.

As to `CCn1cc(C(=O)O)c(=O)c2ccc(C)nc21` [Nalidixic Acid], the Resistance pattern entry with A. baumannii BAA-1793 was “R”.

Turning to `CN[C@H](CC(C)C)C(=O)N[C@H]1C(=O)N[C@@H](CC(N)=O)C(=O)N[C@H]2C(=O)N[C@H]3C(=O)N[C@H](C(=O)N[C@H](C(=O)O)c4cc(O)cc(O)c4-c4cc3ccc4O)[C@H](O)c3ccc(c(Cl)c3)Oc3cc2cc(c3O[C@@H]2O[C@H](CO)[C@@H](O)[C@H](O)[C@H]2O[C@H]2C[C@](C)(N)[C@H](O)[C@H](C)O2)Oc2ccc(cc2Cl)[C@H]1O` [VAN, vancomycin], the Resistance pattern entry in the assay on E. faecium BAA-2319 is reported as “R”. In addition, the “VITEK characterization” value in the assay with Staphylococcus aureus (S. aureus ATCC 29213) and with Staphylococcus aureus (S. aureus ATCC 33591) was “S” in each case.

`CO/N=C(\C(=O)N[C@@H]1C(=O)N2C(C(=O)O)=C(COC(N)=O)CS[C@H]12)c1ccco1` [Cefuroxime]: the Resistance pattern entry in the assay on A. baumannii BAA-1793 is “R”.

`CC(=O)OCC1=C(C(=O)O)N2C(=O)[C@@H](NC(=O)Cc3cccs3)[C@H]2SC1` [Cefalotin]: in the assay with A. baumannii BAA-1793, the Resistance pattern result is reported as “R”.

`O=C1CN(/N=C/c2ccc([N+](=O)[O-])o2)C(=O)N1` [Nitrofurantoin]: the Resistance pattern result in the assay with A. baumannii BAA-1793 and in the assay with E. faecium BAA-2319 was “R” in each case.

For the compound `NCC[C@H](O)C(=O)N[C@@H]1C[C@H](N)[C@@H](O[C@H]2O[C@H](CN)[C@@H](O)[C@H](O)[C@H]2O)[C@H](O)[C@H]1O[C@H]1O[C@H](CO)[C@@H](O)[C@H](N)[C@H]1O` [Amikacin], the Resistance pattern entry with A. baumannii BAA-1793 is “S”.
